Results as given in PubChem BioAssay (NCI).
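1) Cells in 96-well plates. 2) Compound, 48 h, 5 concentrations. 3) Linear interpolation between surrounding doses. 4) Unreached endpoint = highest concentration. At the TGI there is no net growth.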

Key:
Experiment in all cases: NCI-60 cell line screen, 48 h
[1] = system: MDA-N
[2] = system: T-47D breast
[3] = system: HOP-92 NSCLC
[4] = system: MALME-3M melanoma
[5] = system: SK-MEL-2 melanoma
[6] = system: MDA-MB-231 breast
[7] = system: NCI-H460 lung
[8] = system: NCI-H522 lung
[9] = system: NCI-H226 lung
[10] = system: SK-OV-3 ovarian
[11] = system: SF-295 CNS
[12] = system: UO-31 renal
[13] = system: M14 melanoma
[14] = system: OVCAR-5 ovarian
[15] = system: KM12 colon
[16] = system: HT29 colon
[17] = system: EKVX NSCLC
[18] = system: HL-60(TB) leukemia
[19] = system: LOX IMVI melanoma
[20] = system: SF-539 CNS
[21] = system: DU-145 prostate
[22] = system: CAKI-1 renal
[23] = system: MOLT-4 leukemia
[24] = system: SR leukemia
[25] = system: TK-10 renal
[26] = system: A549 NSCLC
[27] = system: K-562 leukemia
[28] = system: SNB-19 CNS
[29] = system: OVCAR-4 ovarian
[30] = system: NCI/ADR-RES ovarian
[31] = system: SNB-75 CNS
[32] = system: A498 renal
[33] = system: RPMI-8226 leukemia
[34] = system: U251 CNS
[35] = system: MDA-MB-435
[36] = system: UACC-257 melanoma
[37] = system: IGROV1 ovarian
[38] = system: NCI-H23 lung
[39] = system: SK-MEL-28 melanoma
[40] = system: COLO 205 colon
[41] = system: OVCAR-3 ovarian
[42] = system: SW-620 colon
[43] = system: SN12C renal
[44] = system: SF-268 CNS
[45] = system: BT-549 breast
[46] = system: PC-3 prostate
[47] = system: OVCAR-8 ovarian
[48] = system: MCF7 breast
[49] = system: SK-MEL-5 melanoma
[50] = system: CCRF-CEM leukemia
[51] = system: RXF 393 renal
[52] = system: HCT-15 colon
[53] = system: ACHN renal
[54] = system: HCT-116 colon
[55] = system: UACC-62 melanoma
[56] = system: HOP-62 NSCLC
[57] = system: 786-0 renal
[58] = system: HCC-2998 colon

## COC1=CC(=O)c2c(c(COC(C)=O)cn2C)C1=O
[1]
  TGI: 253 nM
[2]
  TGI: 3670 nM
[3]
  TGI: 822 nM
[4]
  TGI: 117 nM
[5]
  TGI: 373 nM
[6]
  TGI: 1080 nM
[7]
  TGI: 835 nM
[8]
  TGI: 40.5 nM
[9]
  TGI: 424 nM
[10]
  TGI: 677 nM
[11]
  TGI: 69.2 nM
[12]
  TGI: 551 nM
[13]
  TGI: 195 nM
[14]
  TGI: 68.9 nM
[15]
  TGI: 763 nM
[16]
  TGI: 124 nM
[17]
  TGI: 727 nM
[18]
  TGI: 694 nM
[19]
  TGI: 431 nM
[20]
  TGI: 313 nM
[21]
  TGI: 247 nM
[22]
  TGI: 220 nM
[23]
  TGI: 653 nM
[24]
  TGI: 545 nM
[25]
  TGI: 207 nM
[26]
  TGI: 509 nM
[27]
  TGI: 707 nM
[28]
  TGI: 8180 nM
[29]
  TGI: 1040 nM
[30]
  TGI: 295 nM
[31]
  TGI: 880 nM
[32]
  TGI: 586 nM
[33]
  TGI: 584 nM
[34]
  TGI: 734 nM
[35]
  TGI: 280 nM
[36]
  TGI: 1430 nM
[37]
  TGI: 443 nM
[38]
  TGI: 417 nM
[39]
  TGI: 516 nM
[40]
  TGI: 94.3 nM
[41]
  TGI: 395 nM
[42]
  TGI: 193 nM
[43]
  TGI: 325 nM
[44]
  TGI: 808 nM
[45]
  TGI: 91.1 nM
[46]
  TGI: 1350 nM
[47]
  TGI: 313 nM
[48]
  TGI: 2500 nM
[49]
  TGI: 390 nM
[50]
  TGI: 710 nM
[51]
  TGI: 309 nM
[52]
  TGI: 52.2 nM
[53]
  TGI: 173 nM
[54]
  TGI: 216 nM
[55]
  TGI: 283 nM

## COc1ccc(C2CC(c3ccc(NS(=O)(=O)c4cc([N+](=O)[O-])ccc4C)cc3)=NN2S(=O)(=O)c2cc([N+](=O)[O-])ccc2C)cc1 (configuration not stated)
[1]
  TGI: > 100000 nM
[2]
  TGI: > 100000 nM
[3]
  TGI: > 100000 nM
[4]
  TGI: > 100000 nM
[5]
  TGI: > 100000 nM
[6]
  TGI: > 100000 nM
[7]
  TGI: > 100000 nM
[8]
  TGI: 79400 nM
[9]
  TGI: > 100000 nM
[10]
  TGI: > 100000 nM
[11]
  TGI: > 100000 nM
[12]
  TGI: > 100000 nM
[13]
  TGI: > 100000 nM
[14]
  TGI: > 100000 nM
[15]
  TGI: > 100000 nM
[16]
  TGI: > 100000 nM
[17]
  TGI: > 100000 nM
[18]
  TGI: > 100000 nM
[19]
  TGI: > 100000 nM
[21]
  TGI: > 100000 nM
[22]
  TGI: > 100000 nM
[23]
  TGI: > 100000 nM
[24]
  TGI: > 100000 nM
[25]
  TGI: > 100000 nM
[26]
  TGI: > 100000 nM
[56]
  TGI: > 100000 nM
[27]
  TGI: > 100000 nM
[28]
  TGI: > 100000 nM
[29]
  TGI: > 100000 nM
[30]
  TGI: > 100000 nM
[31]
  TGI: > 100000 nM
[32]
  TGI: > 100000 nM
[33]
  TGI: > 100000 nM
[34]
  TGI: > 100000 nM
[35]
  TGI: > 100000 nM
[36]
  TGI: > 100000 nM
[37]
  TGI: > 100000 nM
[38]
  TGI: 78700 nM
[39]
  TGI: > 100000 nM
[40]
  TGI: > 100000 nM
[41]
  TGI: > 100000 nM
[42]
  TGI: > 100000 nM
[43]
  TGI: > 100000 nM
[44]
  TGI: 79900 nM
[45]
  TGI: > 100000 nM
[46]
  TGI: > 100000 nM
[47]
  TGI: > 100000 nM
[48]
  TGI: > 100000 nM
[49]
  TGI: > 100000 nM
[50]
  TGI: > 100000 nM
[51]
  TGI: > 100000 nM
[52]
  TGI: > 100000 nM
[53]
  TGI: > 100000 nM
[54]
  TGI: > 100000 nM
[55]
  TGI: > 100000 nM
[57]
  TGI: > 100000 nM
[58]
  TGI: 57900 nM
